Results published in US10098581B2, “Integrated electrical profiling system for measuring leukocytes activation from whole blood” (Massachusetts Institute of Technology, priority 2014, dated 2018).

How the values were obtained:
Type in all cases: cell-based
human granulocytes [1] = assay: Flow cytometry and functional assays of PMA-activated granulocytes; details: different doses of PMA
Protocol: 10 ml samples of heparinized human blood were obtained from healthy donors (Blood Research Components, LLC). Two aliquots of 5 ml of blood were set in 3 ml of Mono-Poly Resolving Medium (MP Biosciences) and the samples were spun in a free hanging centrifuge at 400 cfg for 40 min. The resulting layered samples contained a band of granulocytes that were recovered and triple washed with a PBS solution. Finally, the cells were resuspended in a PBS solution (PBS, 1% BSA, 1 u Heparin).
(§1) Human granulocytes were activated with different concentrations of PMA (Phorbol 12-Myristate 13-Acetate, Sigma Aldrich) in a PBS solution with Mg^++ and Ca^++. To activate the cells, a 1:1 solution of suspended cells was mixed with PMA buffer and the resulting suspension was incubated for 20 min at room temperature.
Flow cytometry (FC) was performed with a BD Accuri (Becton Dickinson) flow cytometer with a 488 nm and a 670 nm emitter. Granulocytes were gated based on side and forward scatter and stained with anti-human CD11b-PE, anti-human CD66b-PerCP-CY5.5 and anti-human CD18-FITC (Becton Dickinson) as activation indicators. Mouse samples were stained using anti-mouse CD-18 and anti-mouse Ly6G as an activation marker.
The first goal was to confirm that IDS is able to discern IDP differences in activated and non-activated human granulocytes extracted from freshly collected blood. […]

human granulocytes [2] = assay: Single-sided iso-dielectric separation (IDS): IDP distributions of PMA-treated vs non-treated granulocytes
Text: In IDS, a heterogeneous population of cells suspended in high conductivity media was loaded into a microfluidic chip. Other inlets containing intermediate and low conductivity media provided a parallel laminar co-flow. This configuration generated a conductivity gradient perpendicular to the main microfluidic channel flow. The channel also had slanted planar electrodes patterned at the bottom (single-sided IDS) or top and bottom (double-sided IDS). An AC electric field applied to the electrodes generated a DEP barrier that guided the cells across the conductivity gradient. Cells escaped the DEP barrier at their isodielectric position (IDP), which is the position where they are at dielectric equilibrium with the surrounding medium. Cells with different effective permittivity (or effective conductivity) escaped at a different IDP resulting in a transverse spatial distribution of cells. A CCD camera near the end of the channel took videos of the cells. Finally, image-processing software detected these cells and computed the resulting IDP distribution (see FIGS. 4a-4d).
To determine the IDP different populations, suspensions (2×10^6 cells/ml) in PBS buffer with a conductivity of 1.2 S/m (PBS, 1% BSA, 1 u Heparin) were used. For the intermediate and low conductivity media, this buffer was mixed with an isotonic sucrose solution to achieve an intermediate conductivity of 0.8 S/m and a low conductivity of 0.4 S/m.
A function generator (Agilent 33220A) and an amplifier applied a 10 Vpp AC field with the same amplitude across all frequencies. A CCD camera at the end of the main channel imaged fluorescently labeled cells flowing across the field of view. An image detection script analyzed the videos to detect cells in each frame and determine the centroid of each cell. The same script generated cell position distributions that correspond to the resulting IDP distribution.
as §1
Using a single-sided IDS platform, the IDP distributions of granulocytes treated with 1 μM PMA and a control population of non-treated granulocytes were examined. A 10 Vpp AC voltage was applied to the electrodes with frequencies ranging from 0.5 MHz to 15 MHz. Cells were loaded at 0.4 μl/min and the intermediate and low conductivity buffer at 0.55 μl/min (1.5 μl/min total). To determine the IDP distributions for each frequency, the IDP distributions of at least 1000 cells were recorded, which required an acquisition of about 1.5 min. […]

neutrophils = assay: IDP evolution of PMA-treated neutrophils over treatment time; details: normalized IDP vs PMA treatment time in minutes (FIG. 16B)
Text: In another embodiment according to the invention, isodielectric position dynamics can be used to assist with diagnostics. In particular, activation of leukocytes can be tracked with DCFH-DA oxidation. FIG. 16A is a graph of respiratory burst (DCFH-DA oxidation), showing DCF median intensity on the vertical axis, versus PMA (Phorbol 12-Myristate 13-Acetate, Sigma Aldrich) treatment time in minutes (horizontal axis), at different concentrations of PMA. FIG. 16B is a graph of iso-dielectric point (IDP) evolution of PMA-treated neutrophils, showing normalized IDP on the vertical axis versus PMA treatment time in minutes on the horizontal axis.

human granulocytes [3] = assay: IDS mechanism study of neutrophil activation with chemical inhibitors; details: 10 MHz; 0.5 μM fMLP, 2 μM PMA; 20 minutes stimulation
Protocol: This experiment focuses on the mechanism study of electrical changes during neutrophil activation. The mechanism study aims to help understand which aspect of neutrophil activation iso-dielectric separation is sensitive to. Different inhibitors were added to reduce the effect of membrane ruffling, reactive oxygen species (ROS) generation, and degranulation before activation to decouple the effect of the three factors. FIG. 19 is a schematic diagram illustrating aspects of activation of a neutrophil in response to a stimulus. In membrane ruffling, volume changes occur with advanced activation. Membrane roughness can increase the membrane capacitance. In Reactive Oxygen Species (ROS) generation, cytoplasm conductivity increases. NADPH oxidase is a major cause of the ROS generation. Degranulation occurs during phagocytosis, and lowers cytoplasmic ionic content. The experiment uses chemical inhibitors to block specific aspects of activation to determine the dominant causes of electrical changes. FIG. 20A is a summary of the procedure. Human granulocytes are first isolated from whole blood with a density gradient method, and then were split into six aliquots for different treatment. CytB, CytB+Jasp, CytB+DPI were added for inhibiting membrane ruffling, membrane ruffling and degranulation, membrane ruffling and ROS generation, respectively. The inhibition treatment lasted for ten minutes. […]

SMILES	levels of reactive oxygen species (human granulocytes [1])	CD11b and CD18 expression (human granulocytes [1]; 20 min at room temperature)	IDP distribution of treated granulocytes vs non-treated control (human granulocytes [2]; 1 μM PMA, as frequency increases (0.5-15 MHz), 10 Vpp)	peak ROC area-under-the-curve (AUC), IDP as classification threshold (human granulocytes [2]; 1 μM PMA, frequencies 10-15 MHz)	activation state of neutrophils (IDP profiling) (human granulocytes [2]; 1000 nM PMA)	ROC area under the curve, IDP as classification criteria (human granulocytes [2]; PMA treated vs control, above 5 MHz)	IDP of treated neutrophils versus treatment time (neutrophils)	IDP shift of stimulated granulocytes (indicating activation) (human granulocytes [3])
CCCCCCCCCCCCCC(=O)O[C@@H]1[C@@H](C)[C@@]2(O)[C@@H](C=C(CO)C[C@]3(O)C(=O)C(C)=C[C@@H]23)[C@@H]2C(C)(C)[C@]12OC(C)=O [PMA, Phorbol 12-Myristate 13-Acetate]	increased	increased	displaced towards higher IDP	0.62	activated	> 0.6	changes over time	shifted to the left
CSCC[C@H](NC=O)C(=O)N[C@@H](CC(C)C)C(=O)N[C@@H](Cc1ccccc1)C(=O)O [fMLP, N-Formylmethionyl-leucyl-phenylalanine]								shifted to the left
